Results as given in PubChem BioAssay (NCI).
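Where inhibition never reached the appropriate level, the endpoint shown equals the highest concentration tested. Otherwise, values were interpolated linearly from a five-concentration, 48-hour dose response in 96-well plates. GI50 = concentration required for 50% inhibition of growth. TGI marks complete inhibition of growth.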

What was measured:
Assay in all cases: growth of human tumour cells (NCI), 48 h
SK-OV-3 ovarian = system: SK-OV-3 ovarian
UO-31 renal = system: UO-31 renal
DU-145 prostate = system: DU-145 prostate
SF-268 CNS = system: SF-268 CNS
NCI/ADR-RES ovarian = system: NCI/ADR-RES ovarian
SN12C renal = system: SN12C renal
NCI-H226 lung = system: NCI-H226 lung
MCF7 breast = system: MCF7 breast
786-0 renal = system: 786-0 renal

SMILES | TGI (SK-OV-3 ovarian) [µM] | TGI (UO-31 renal) [µM] | TGI (DU-145 prostate) [µM] | TGI (SF-268 CNS) [µM] | TGI (NCI/ADR-RES ovarian) [µM] | TGI (SN12C renal) [µM] | TGI (NCI-H226 lung) [µM] | TGI (MCF7 breast) [µM] | TGI (786-0 renal) [µM] | GI50 (SK-OV-3 ovarian) [µM] | GI50 (UO-31 renal) [µM] | GI50 (DU-145 prostate) [µM] | GI50 (NCI/ADR-RES ovarian) [µM] | GI50 (SN12C renal) [µM] | GI50 (NCI-H226 lung) [µM] | GI50 (MCF7 breast) [µM]
O=C(/C=C/c1ccc(Cl)c(Cl)c1)CCN1CCN(CCC(=O)/C=C/c2ccc(Cl)c(Cl)c2)CC1 | > 100 | 32.6 | 54.4 | > 100 | > 100 | 80.9 | 72.8 | 19.4 | 21 | – | – | – | – | – | – | –
CCOC(=O)CC[C@@H](NC(=O)c1ccc(NCc2ccc3nc(OC)c(OC)nc3c2)cc1)C(=O)OCC | > 100 | > 65.4 | > 100 | > 100 | > 100 | > 100 | > 100 | > 31.6 | > 100 | – | – | – | – | – | – | –
COc1ccc(CN=C2Nc3ccncc3S(=O)(=O)N2c2ccccc2)cc1 | > 100 | > 100 | > 100 | > 100 | > 100 | > 100 | > 100 | > 100 | > 100 | – | – | – | – | – | – | –
C=C(Br)C(Cl)(CBr)CCC(Br)C(C)(C)Cl (configuration not stated) | > 10 | > 10 | > 10 | > 10 | > 10 | > 10 | > 10 | > 10 | > 10 | – | – | – | – | – | – | –
CC1(C)OC[C@@]2([C@@H]3CC[C@@H](C3)C2(C)C)N1O | > 100 | – | > 100 | > 100 | > 100 | > 100 | > 100 | > 100 | > 100 | – | – | – | – | – | – | –
C=C1CC(CNc2cc(Cl)nc(N)n2)C1 | > 100 | > 100 | > 100 | > 100 | > 100 | > 100 | > 100 | > 100 | > 100 | – | – | – | – | – | – | –
Cc1ccc(NC(=S)NNC(=O)c2cc(-c3ccccc3)nc3ccccc23)cc1C | 32.9 | 36.3 | 45.4 | > 100 | 49.1 | 38.1 | 90.1 | 47.8 | 33.7 | – | – | – | – | – | – | –
COc1cc(/C=C/C(=O)O)ccc1O | – | > 100 | > 100 | > 100 | > 100 | > 100 | > 100 | > 100 | > 100 | – | – | – | – | – | – | –
CC1=NN(C(=O)CC(=O)Nc2cccc(Cl)c2)C(=O)C1N=Nc1ccc(S(=O)(=O)c2ccc(N=NC3C(=O)N(C(=O)CC(=O)Nc4cccc(Cl)c4)N=C3C)cc2)cc1 (configuration not stated) | > 100 | > 100 | > 100 | > 100 | > 100 | > 100 | > 100 | > 100 | > 100 | – | – | – | – | – | – | –
Cc1ccnc2c1c(=O)c1ccccc1n2C | > 100 | 36.5 | > 100 | > 100 | > 100 | > 100 | > 100 | > 100 | > 100 | – | – | – | – | – | – | –
CCOC(=O)NNC1(SC)NC(=O)c2c(cc(Cl)oc2=O)O1 (configuration not stated) | 26.8 | 3.35 | 19.7 | 10.7 | 25.7 | 14.7 | 43.8 | 5.84 | 4.84 | – | – | – | – | – | – | –
CC1(C)SC2C(NC(=O)Cc3ccccc3)C(=O)N2C1C(=O)O (configuration not stated) | > 100 | > 100 | > 100 | > 100 | > 100 | > 100 | > 100 | > 100 | > 100 | – | – | – | – | – | – | –
COc1cccc2c1C(=O)c1ccc3cc(CO)cc(O)c3c1C2=O | 8.61 | 7.32 | 3.31 | 5.18 | 2.28 | 2.86 | 5.54 | 1.56 | 4.24 | – | – | – | – | – | – | –
CCOP(=O)(OCC)C(Cc1ccccc1)N=C(c1ccccc1)c1ccccc1 (configuration not stated) | 28.5 | 24.4 | 36.3 | 37.6 | 28.7 | 35.2 | 32.9 | 31.2 | 30.2 | – | – | – | – | – | – | –
CCC(/C=C/c1ccccc1)=N\NC(=S)N/N=C(/C=C/c1ccccc1)CC | > 100 | > 100 | > 100 | > 100 | > 100 | > 100 | > 100 | > 100 | > 100 | – | – | – | – | – | – | –
CSCCCNC(=O)c1csc([C@@H](CSC)NC(=O)CCNC(=O)[C@@H](NC(=O)OCC(Br)(Br)Br)C(C)O)n1 (some centres not stated) | > 100 | > 100 | > 100 | > 100 | > 100 | > 100 | > 100 | > 100 | > 100 | – | – | – | – | – | – | –
CC1C=C(NCC2(CO)CCC2)NC(N)=N1 (configuration not stated) | > 100 | > 100 | > 100 | > 100 | > 100 | > 100 | > 100 | > 100 | > 100 | – | – | – | – | – | – | –
Cc1ccc(N2C(=O)CC(=O)N(NC(=O)C(C)Oc3ccccc3C)C2=S)cc1 (configuration not stated) | > 100 | > 100 | > 100 | > 100 | > 100 | > 100 | > 100 | > 100 | > 100 | – | – | – | – | – | – | –
COc1ccc(C2c3cc4c(cc3OC(N3CCOCC3)C2C)OCO4)c(OC)c1 (configuration not stated) | 52.6 | 58.7 | 54.7 | 53 | 9.68 | 65.9 | 14.4 | 33.8 | 41.1 | – | – | – | – | – | – | –
CCO[C@H]1C[C@@H](c2ccccc2)[C@]2(C)C[C@H](C(=O)OC)ON2O1 | – | > 100 | > 100 | > 100 | > 100 | > 100 | > 100 | > 100 | > 100 | – | – | – | – | – | – | –
O=C(/C(Cl)=C/c1ccccc1)c1ccccc1 | 39.8 | 5.49 | 29.8 | 21.9 | 19.4 | 3.92 | 18.1 | > 28.4 | 3.37 | – | – | – | – | – | – | –
COc1cc2cnc3c(c2cc1OC)Cc1cc2c(cc1-3)OCO2 | 26 | > 43.3 | > 54.1 | 31.3 | > 81.5 | > 100 | > 95.8 | > 81.8 | > 51.9 | 0.0203 | < 0.0193 | 0.0338 | < 0.01 | > 100 | 41.1 | 0.0333
